Among the data in the supplement of paper PMC10307832 are relative viability values, retold here.

SMILES strings stand for the structures.

The first test relates to NCI-H1993. Nature of the test: relative viability (nuclei count vs DMSO), 5 days (fraction); higher = more cells survive. Conditions: first compound 20 µM. Summed up: (§1)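 Lung cancer cell lines were seeded in 1536-well plates and dosed by pin tool the next day, with either a single drug or a fixed anchor-drug dose combined with five library-drug doses (not always all listed) spaced in √10 steps. Five days later, one step fixed the cells and stained their nuclei (final 0.05% Triton X-100, 1% formaldehyde, 1 ug/ml Hoechst), and nuclei were counted on 4× images. Relative viability is the nuclei count in treated wells divided by the count in vehicle wells, and each value is the median of duplicate plates.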
Regarding `COCC1(CO)C(=O)C2CCN1CC2` (stereo unspecified) [PRIMA-1MET] + O=C(c1cc(Cc2n[nH]c(=O)c3ccccc23)ccc1F)N1CCN(C(=O)C2CC2)CC1 [Olaparib] (partner 8 µM), the relative viability turned out to be 0.896.
As for `COCC1(CO)C(=O)C2CCN1CC2` (stereo unspecified) [PRIMA-1MET] + C[C@@H](Oc1cc(-c2cnn(C3CCNCC3)c2)cnc1N)c1c(Cl)ccc(F)c1Cl [Crizotinib] (partner 1 µM), the relative viability came to 0.822.

For another test, the system named is NCI-H520. The description is as above. Conditions: first compound 0.2 µM. An outline of the steps: as §1
On to `COCC1(CO)C(=O)C2CCN1CC2` (stereo unspecified) [PRIMA-1MET] + CC(C)C[C@H](NC(=O)[C@H](Cc1ccccc1)NC(=O)c1cnccn1)B(O)O [Bortezomib] (partner 0.002 µM), for which the relative viability worked out at 0.545.
Still for that read-out and setting: next, `COCC1(CO)C(=O)C2CCN1CC2` (stereo unspecified) [PRIMA-1MET] + CC(=O)Nc1cccc(-n2c(=O)n(C3CC3)c(=O)c3c(Nc4ccc(I)cc4F)n(C)c(=O)c(C)c32)c1 [Trametinib] (partner 0.02 µM): 0.463.
Molecule `COCC1(CO)C(=O)C2CCN1CC2` (stereo unspecified) [PRIMA-1MET] + Nc1ncn([C@H]2C[C@H](O)[C@@H](CO)O2)c(=O)n1 [Decitabine] (partner 2 µM) returned a relative viability of 0.506.
The same measure, in the same setting: as for `COCC1(CO)C(=O)C2CCN1CC2` (stereo unspecified) [PRIMA-1MET] + O=C(c1cc(Cc2n[nH]c(=O)c3ccccc23)ccc1F)N1CCN(C(=O)C2CC2)CC1 [Olaparib] (partner 8 µM), the figure is 0.371.
On the same count and under the same terms, as for `COCC1(CO)C(=O)C2CCN1CC2` (stereo unspecified) [PRIMA-1MET] + C[C@@H](Oc1cc(-c2cnn(C3CCNCC3)c2)cnc1N)c1c(Cl)ccc(F)c1Cl [Crizotinib] (partner 1 µM), the figure is 0.639.

The test is the same for the next values; noted with them: first compound 0.6325 µM.
Regarding `COCC1(CO)C(=O)C2CCN1CC2` (stereo unspecified) [PRIMA-1MET] + CC(C)C[C@H](NC(=O)[C@H](Cc1ccccc1)NC(=O)c1cnccn1)B(O)O [Bortezomib] (partner 0.002 µM), the relative viability stood at 0.503.
In the case of `COCC1(CO)C(=O)C2CCN1CC2` (stereo unspecified) [PRIMA-1MET] + C[C@@H](Oc1cc(-c2cnn(C3CCNCC3)c2)cnc1N)c1c(Cl)ccc(F)c1Cl [Crizotinib] (partner 1 µM), the relative viability came out at 0.841.

The test is the same for the next values; noted with them: first compound 2 µM.
For `COCC1(CO)C(=O)C2CCN1CC2` (stereo unspecified) [PRIMA-1MET] + CC(=O)Nc1cccc(-n2c(=O)n(C3CC3)c(=O)c3c(Nc4ccc(I)cc4F)n(C)c(=O)c(C)c32)c1 [Trametinib] (partner 0.02 µM), the relative viability was found to be 0.455.
On the same count and under the same terms, next, `COCC1(CO)C(=O)C2CCN1CC2` (stereo unspecified) [PRIMA-1MET] + Nc1ncn([C@H]2C[C@H](O)[C@@H](CO)O2)c(=O)n1 [Decitabine] (partner 2 µM): 0.413; `COCC1(CO)C(=O)C2CCN1CC2` (stereo unspecified) [PRIMA-1MET] + O=C(c1cc(Cc2n[nH]c(=O)c3ccccc23)ccc1F)N1CCN(C(=O)C2CC2)CC1 [Olaparib] (partner 8 µM): 0.38.

The same test, now with this note: first compound 6.325 µM.
`COCC1(CO)C(=O)C2CCN1CC2` (stereo unspecified) [PRIMA-1MET] + CC(C)C[C@H](NC(=O)[C@H](Cc1ccccc1)NC(=O)c1cnccn1)B(O)O [Bortezomib] (partner 0.002 µM) returned a relative viability of 0.613.
Still for that read-out and setting: next, `COCC1(CO)C(=O)C2CCN1CC2` (stereo unspecified) [PRIMA-1MET] + CC(=O)Nc1cccc(-n2c(=O)n(C3CC3)c(=O)c3c(Nc4ccc(I)cc4F)n(C)c(=O)c(C)c32)c1 [Trametinib] (partner 0.02 µM): 0.76; `COCC1(CO)C(=O)C2CCN1CC2` (stereo unspecified) [PRIMA-1MET] + Nc1ncn([C@H]2C[C@H](O)[C@@H](CO)O2)c(=O)n1 [Decitabine] (partner 2 µM): 0.521; `COCC1(CO)C(=O)C2CCN1CC2` (stereo unspecified) [PRIMA-1MET] + O=C(c1cc(Cc2n[nH]c(=O)c3ccccc23)ccc1F)N1CCN(C(=O)C2CC2)CC1 [Olaparib] (partner 8 µM): 0.318.
The same measure, in the same setting: next, `COCC1(CO)C(=O)C2CCN1CC2` (stereo unspecified) [PRIMA-1MET] + C[C@@H](Oc1cc(-c2cnn(C3CCNCC3)c2)cnc1N)c1c(Cl)ccc(F)c1Cl [Crizotinib] (partner 1 µM): 0.659.

The same test, now with this note: first compound 20 µM.
In turn, `COCC1(CO)C(=O)C2CCN1CC2` (stereo unspecified) [PRIMA-1MET] + CC(C)C[C@H](NC(=O)[C@H](Cc1ccccc1)NC(=O)c1cnccn1)B(O)O [Bortezomib] (partner 0.002 µM) returned a relative viability of 0.113.
Still for that read-out and setting: next, `COCC1(CO)C(=O)C2CCN1CC2` (stereo unspecified) [PRIMA-1MET] + CC(=O)Nc1cccc(-n2c(=O)n(C3CC3)c(=O)c3c(Nc4ccc(I)cc4F)n(C)c(=O)c(C)c32)c1 [Trametinib] (partner 0.02 µM): 0.0736; `COCC1(CO)C(=O)C2CCN1CC2` (stereo unspecified) [PRIMA-1MET] + Nc1ncn([C@H]2C[C@H](O)[C@@H](CO)O2)c(=O)n1 [Decitabine] (partner 2 µM): 0.219; `COCC1(CO)C(=O)C2CCN1CC2` (stereo unspecified) [PRIMA-1MET] + O=C(c1cc(Cc2n[nH]c(=O)c3ccccc23)ccc1F)N1CCN(C(=O)C2CC2)CC1 [Olaparib] (partner 8 µM): 0.144.
Same read-out and setting: next, `COCC1(CO)C(=O)C2CCN1CC2` (stereo unspecified) [PRIMA-1MET] + C[C@@H](Oc1cc(-c2cnn(C3CCNCC3)c2)cnc1N)c1c(Cl)ccc(F)c1Cl [Crizotinib] (partner 1 µM): 0.135.

In a further test the test system is NCI-H1793. The description is as above. Conditions: first compound 0.2 µM. An outline of the steps:
as §1
`COCC1(CO)C(=O)C2CCN1CC2` (stereo unspecified) [PRIMA-1MET] + CC(=O)Nc1cccc(-n2c(=O)n(C3CC3)c(=O)c3c(Nc4ccc(I)cc4F)n(C)c(=O)c(C)c32)c1 [Trametinib] (partner 0.02 µM) gave a relative viability of 0.365.
Same read-out and setting: next, `COCC1(CO)C(=O)C2CCN1CC2` (stereo unspecified) [PRIMA-1MET] + Nc1ncn([C@H]2C[C@H](O)[C@@H](CO)O2)c(=O)n1 [Decitabine] (partner 2 µM): 0.484.
As to `COCC1(CO)C(=O)C2CCN1CC2` (stereo unspecified) [PRIMA-1MET] + O=C(c1cc(Cc2n[nH]c(=O)c3ccccc23)ccc1F)N1CCN(C(=O)C2CC2)CC1 [Olaparib] (partner 8 µM), the relative viability came to 1.04.

The same test, now with this note: first compound 0.6325 µM.
`COCC1(CO)C(=O)C2CCN1CC2` (stereo unspecified) [PRIMA-1MET] + CC(=O)Nc1cccc(-n2c(=O)n(C3CC3)c(=O)c3c(Nc4ccc(I)cc4F)n(C)c(=O)c(C)c32)c1 [Trametinib] (partner 0.02 µM) had a relative viability of 0.41.
Still for that read-out and setting: as for `COCC1(CO)C(=O)C2CCN1CC2` (stereo unspecified) [PRIMA-1MET] + Nc1ncn([C@H]2C[C@H](O)[C@@H](CO)O2)c(=O)n1 [Decitabine] (partner 2 µM), the figure is 0.333; as for `COCC1(CO)C(=O)C2CCN1CC2` (stereo unspecified) [PRIMA-1MET] + O=C(c1cc(Cc2n[nH]c(=O)c3ccccc23)ccc1F)N1CCN(C(=O)C2CC2)CC1 [Olaparib] (partner 8 µM), 0.887.

Staying with this test, now noted: first compound 6.325 µM.
As to `COCC1(CO)C(=O)C2CCN1CC2` (stereo unspecified) [PRIMA-1MET] + CC(=O)Nc1cccc(-n2c(=O)n(C3CC3)c(=O)c3c(Nc4ccc(I)cc4F)n(C)c(=O)c(C)c32)c1 [Trametinib] (partner 0.02 µM), the relative viability is 0.361.
Same read-out and setting: as for `COCC1(CO)C(=O)C2CCN1CC2` (stereo unspecified) [PRIMA-1MET] + Nc1ncn([C@H]2C[C@H](O)[C@@H](CO)O2)c(=O)n1 [Decitabine] (partner 2 µM), the figure is 0.489; as for `COCC1(CO)C(=O)C2CCN1CC2` (stereo unspecified) [PRIMA-1MET] + O=C(c1cc(Cc2n[nH]c(=O)c3ccccc23)ccc1F)N1CCN(C(=O)C2CC2)CC1 [Olaparib] (partner 8 µM), 0.843.
